# Measured values reported in US8444970B2, “Compositions and methods for treating ocular diseases and conditions” (Lpath, Inc., priority 2006, dated 2013).
# Values joined by “and” are separate entries in the source; they are usually repeats but may differ in a detail not shown here. Identical values can stand only once.
# Experiments:
# [1] = tested on: peripheral lymphocyte counts; settings: single oral dose; cited from earlier work
# [2] = tested on: human retinal pigmented epithelial cells; assay: alpha-SMA expression in retinal pigmented epithelial cells; type: cell-based
# Source text: (§1) In many of these disorders, circulating growth factors and chemokines promote the transformation of normal ocular cells into fibrocontractile, scar tissue-producing cells that have been termed “myofibroblasts”. Normally, myofibroblasts are responsible for tissue repair as part of the wound healing response following injury. However altered number and function of myofibroblasts are implicated in diseases characterized by pathological scar tissue formation in the liver, skin, lung, kidney, heart and eyes. In the eye, transformation of retinal pigmented epithelial (RPE) cells to a myofibroblast phenotype is linked to formation of fibro-contractile membranes which cause retinal detachment and subsequent vision impairment. In addition, myofibroblast transformation of ocular fibroblasts can result in abnormal scar tissue production after eye injury leading to subsequent vision loss. Although many of the circulating protein factors in the eye that promote myofibroblast formation have been identified, nothing is known regarding the role of lysolipids such as S1P in this process. Therefore, we examined the effects of S1P on myofibroblast transformation of several human ocular cell lines.
# (§2) In these experiments, the ability of S1P to promote α-SMA expression differed in a concentration dependent manner between the retinal pigmented epithelial cells and conjunctiva fibroblasts. […]
# [3] = tested on: endothelial cell (EC) infiltration into Matrigel plugs; assay: In vivo Matrigel plug assay, S1P-supplemented plugs, EC infiltration; parameters: species or system mouse; settings: plugs containing S1P
# Description: Based on in vivo studies showing that S1P increased endothelial capillary growth into subcutaneously implanted Matrigel plugs, we speculated that SPHINGOMAB could reduce de novo BV formation in vivo. To investigate this, we employed the in vivo Matrigel Plug assay for neovascularization. In one set of experiments, Matrigel was supplemented with either […], 0.5 μg/mL bFGF or 1 μg/mL VEGF and then injected […]. into mice (n=4). After 10 days, the mice were heparinized and injected with the fluorescent lectin, Isolectin B4-FITC, which binds to adhesion molecules expressed by vascular EC that form the growing BVs. The plugs were then excised, frozen in OCT, sectioned and viewed for FITC-stained BVs.
# Sections of the plugs were then stained with hemotoxyln & eosin for evaluation of EC infiltration (FIG. 6B). The infiltration of ECs is a critical step in neo-vascularization. […] Cell infiltration is presumed to be ECs although we recognize that other cell types such as immune cells may also be stained.
# [4] = tested on: human conjunctiva fibroblasts; assay: alpha-SMA expression in conjunctiva fibroblasts; type: cell-based; settings: 10 uM S1P (only at this concentration)
# Source text: as §1, §2
# [5] = tested on: DU145 prostate tumor xenograft; assay: SC DU145 prostate tumor xenograft in nude NCr mice; type: in vivo, mouse; settings: LT1009 50 mg/kg ip q2d; Avastin 20 mg/kg q4d; Paclitaxel 7.5 mg/kg q1dx5
# Description: Nude mice were implanted sc near the right flank with one fragment per mouse of DU145 tumor from an in vivo passage. All treatments were initiated the day when 60 mice in each experiment established tumors ranging in size from approximately 100 to 200 mm^3. […] Paclitaxel and Avastin were administered iv and ip at a dosage of 7.5 mg/kg/dose and 20 mg/kg/dose, q1d×5 and q4d, respectively, injected in a volume of 0.1 mL/10 g body weight.
# During the course of the study tumor growth was monitored by measuring the sc tumors on three axes and calculating the volume. At the end of the study final tumor weights and volumes were determined and then the mice were sacrificed, the tumors harvested. Microvascular densities (MVD) of the tumors were then determined by CD-31 staining.
# [6] = tested on: COLO205 colorectal tumor xenograft; assay: SC COLO205 colorectal tumor xenograft in nude NCr mice; type: in vivo, mouse; settings: LT1009 50 mg/kg ip q3d; Avastin 40 mg/kg iv q7d; Paclitaxel 15 mg/kg iv q1dx5
# Description: Nude mice were implanted sc near the right flank with one fragment per mouse of COLO 205 tumor from an in vivo passage. All treatments were initiated the day when 60 mice in each experiment established tumors ranging in size from approximately 100 to 200 mm3. […] Avastin was administered iv at a dosage of 40 mg/kg/dose on a q7d schedule, injected in a volume of 0.1 mL/20 g body weight. Paclitaxel (positive control), was administered iv at a dosage of 15 mg/kg/dose on a q1d×5 schedule, injected in a volume of 0.1 mL/10 g body weight.
# (§3) Animals were observed daily for mortality. Tumor dimensions and body weights were collected twice weekly starting with the first day of treatment and including the day of study termination. When the median tumor in the vehicle-treated control group in each study reached approximately 4,000 mg, the study was terminated. Tumors from each animal were harvested, wet weights were recorded, tumors were processed for determination of microvascular densities (MVD) by CD-31 staining. Tumor weights (mg) were calculated using the equation for an ellipsoid sphere (l×w^2)/2=mm^3, where l and w refer to the larger and smaller dimensions collected at each measurement and assuming unit density (1 mm3=1 mg).
# [7] = tested on: HT29 colon tumor xenografts; assay: SC HT29 colorectal tumor xenograft in nude NCr mice; type: in vivo, mouse; settings: LT1009 50 mg/kg ip q2d; Avastin 20 mg/kg iv q4d; 5-FU 75 mg/kg ip q4d
# Description: Nude mice were implanted sc near the right flank with one fragment per mouse of HT29 tumor from an in vivo passage. All treatments were initiated the day when 60 mice in each experiment established tumors ranging in size from approximately 100 to 200 mm^3. There were ten mice per treatment group. […] 75 mg/kg 5-FU and 20 mg/kg Avastin were administered ip and iv at a dosage of 75 mg/kg/dose and 20 mg/kg/dose, respectively, q4d, injected in a volume of 0.1 mL/10 g body weight.
# as §3, with “recorded, and” for “recorded,”, “MVD” for “microvascular densities (MVD)”, “mm^3=1” for “mm3=1”
compound,measurement,setting,value
CCCCCCCCc1ccc(CCC(N)(CO)CO)cc1 [FTY720],reduction of peripheral lymphocyte counts,[1],30-70%
"CCCCCCCCCCCCC/C=C/[C@@H](O)[C@@H](N)COP(=O)(O)O [S1P, sphingosine-1-phosphate]",alpha-SMA expression,[2]; 0.001 uM S1P,significant increase
same,alpha-SMA expression,[2]; 10 uM S1P,decreased to basal levels
same,increase of EC infiltration vs Matrigel only plugs,[3],3 fold
same,alpha-SMA expression,[4],significant increase
"Avastin: anti-angiogenic drug, bevacizumab (Avastin, Genentech)",% Reduction compared to Vehicle-Treated Mice,[5],80% and 79%
same,% Reduction compared to Vehicle-Treated Mice,[6],35%
same,% Reduction compared to Vehicle-Treated Mice,[7],30%
